{
  "source": "ChEMBL document CHEMBL1932950",
  "about": "“Inhibitory constituents of Nardostachys chinensis on nitric oxide production in RAW 264.7 macrophages” (Bioorg Med Chem Lett, 2012)",
  "key": {"RAW264.7 [1]": {"system": "RAW264.7", "test": "Cytotoxicity against mouse RAW264.7 cells by CCK assay", "format": "cell-based"}, "RAW264.7 [2]": {"system": "RAW264.7", "test": "Antiinflammatory activity in mouse RAW264.7 cells assessed as inhibition of LPS-induced NO production after 24 hrs by Griess method", "format": "functional, cell-based", "conditions": "for IC50: RAW264.7, 24 h"}},
  "data": [
    {"compound": "COc1cc(C2OC2CO)ccc1O", "note": "(centres undefined) [EPOXYCONIFERYL ALCOHOL]", "values": [
      {"measurement": "Activity", "setting": "RAW264.7 [1]", "value": "Non-toxic"},
      {"measurement": "IC50", "setting": "RAW264.7 [2]", "value": "> 50", "unit": "µM"}
    ]},
    {"compound": "C[C@@H]1CCC=C2C(=O)C=C[C@@H](O)[C@]21C", "values": [
      {"measurement": "Activity", "setting": "RAW264.7 [1]", "value": "Non-toxic"},
      {"measurement": "inhibition", "setting": "RAW264.7 [2]", "value": "Dose-dependent effect"},
      {"measurement": "IC50", "setting": "RAW264.7 [2]", "value": 8.4, "unit": "µM"}
    ]},
    {"compound": "C[C@@H]1C[C@@H](O)C=C2C(=O)C[C@H]3OOC(C)(C)[C@H]3[C@]21C", "note": "[KANSHONE B]", "values": [
      {"measurement": "Activity", "setting": "RAW264.7 [1]", "value": "Non-toxic"},
      {"measurement": "inhibition", "setting": "RAW264.7 [2]", "value": "Dose-dependent effect"},
      {"measurement": "IC50", "setting": "RAW264.7 [2]", "value": 11.5, "unit": "µM"}
    ]},
    {"compound": "COc1cc([C@@H]2OC[C@@H]3[C@H]2CO[C@H]3c2ccc(O)c(OC)c2)ccc1O", "note": "[(+)-PINORESINOL]", "values": [
      {"measurement": "IC50", "setting": "RAW264.7 [2]", "value": 33.5, "unit": "µM"}
    ]},
    {"compound": "C[C@H]1[C@H](C)CC[C@]2(C(=O)O)CC[C@]3(C)C(=CC[C@@H]4[C@@]5(C)CC[C@H](O)C(C)(C)[C@@H]5CC[C@]43C)[C@H]12", "note": "[URSOLIC ACID]", "values": [
      {"measurement": "Activity", "setting": "RAW264.7 [1]", "value": "Non-toxic"},
      {"measurement": "IC50", "setting": "RAW264.7 [2]", "value": "> 50", "unit": "µM"}
    ]},
    {"compound": "COc1cc([C@H]2OC[C@H]3[C@@H]2CO[C@@H]3c2ccc(O)c(OC)c2)ccc1O", "note": "[(+)-PINORESINOL]", "values": [
      {"measurement": "Activity", "setting": "RAW264.7 [1]", "value": "Non-toxic"}
    ]},
    {"compound": "C[C@@H]1CCC=C2C(=O)CC(=O)C[C@]21C", "values": [
      {"measurement": "Activity", "setting": "RAW264.7 [1]", "value": "Non-toxic"},
      {"measurement": "IC50", "setting": "RAW264.7 [2]", "value": "> 50", "unit": "µM"}
    ]},
    {"compound": "C[C@@H]1CCC=C2C(=O)C[C@H]3OOC(C)(C)[C@H]3[C@]21C", "note": "[NARDOSINONE]", "values": [
      {"measurement": "Activity", "setting": "RAW264.7 [1]", "value": "Non-toxic"},
      {"measurement": "inhibition", "setting": "RAW264.7 [2]", "value": "Dose-dependent effect"},
      {"measurement": "IC50", "setting": "RAW264.7 [2]", "value": 11.1, "unit": "µM"}
    ]},
    {"compound": "C[C@@H]1C[C@@H](O)C=C2C(=O)C=C[C@@H](O)[C@]21C", "note": "[NARCHINOL C]", "values": [
      {"measurement": "Activity", "setting": "RAW264.7 [1]", "value": "Non-toxic"},
      {"measurement": "inhibition", "setting": "RAW264.7 [2]", "value": "Dose-dependent effect"},
      {"measurement": "IC50", "setting": "RAW264.7 [2]", "value": 21.6, "unit": "µM"}
    ]},
    {"compound": "C[C@@H]1C[C@H](O)C=C2C(=O)C=C[C@@H](O)[C@]21C", "note": "[NARCHINOL B]", "values": [
      {"measurement": "Activity", "setting": "RAW264.7 [1]", "value": "Non-toxic"},
      {"measurement": "inhibition", "setting": "RAW264.7 [2]", "value": "Dose-dependent effect"},
      {"measurement": "IC50", "setting": "RAW264.7 [2]", "value": 4.6, "unit": "µM"}
    ]},
    {"compound": "COc1ccc(/C=C/C(=O)O)cc1O", "note": "[ISOFERULIC ACID]", "values": [
      {"measurement": "Activity", "setting": "RAW264.7 [1]", "value": "Non-toxic"},
      {"measurement": "IC50", "setting": "RAW264.7 [2]", "value": "> 50", "unit": "µM"}
    ]},
    {"compound": "O=C(O)/C=C/c1ccc(O)cc1", "note": "[COUMARIC ACID]", "values": [
      {"measurement": "Activity", "setting": "RAW264.7 [1]", "value": "Non-toxic"},
      {"measurement": "IC50", "setting": "RAW264.7 [2]", "value": "> 50", "unit": "µM"}
    ]},
    {"compound": "C[C@@H]1CC(=O)C=C2[C@H](O)C[C@@H]3[C@@H](C3(C)C)[C@]21C", "note": "[DEBILON]", "values": [
      {"measurement": "Activity", "setting": "RAW264.7 [1]", "value": "Non-toxic"},
      {"measurement": "IC50", "setting": "RAW264.7 [2]", "value": "> 50", "unit": "µM"}
    ]}
  ]
}
